From patent US11091485B2, “Imidazo[1′,2′:1,6]pyrido[2,3-d]pyrimidine compound as protein kinase inhibitor” (SHENGKE PHARMACEUTICALS (JIANGSU) LTD., priority 2017, dated 2021)
pIC50: −log10 of the molar value.

Assays:
CDK4/Cyclin D1 = CDK4/Cyclin D1 (Homo sapiens (Human), UniProt P11802); test: Biochemical kinase inhibition test, CDK4/Cyclin D1 (32P-ATP, Rb substrate); conditions: recombinant CDK4/Cyclin D1; 10 μM ATP; read-out: CDK4/Cydin D1 IC50
Procedure: (§1) Potency determination of biochemical kinase inhibition test. Kinase activity test and IC50 determination. […] The kinase reaction was initiated by adding 1 μg (1.5 μM) of recombinant retinoblastoma protein, […] and 10μ Ci γ-32P-ATP. The reaction was incubated at 30° C. for 20 minutes, and was terminated by adding 2×Laemmli sample buffer, heated at 95° C. for three minutes, and the resulting solution was dissolved with 12% acrylamide SDS-PAGE and autoradiographed. A densitometer (Bio-Rad) was used to quantify the corresponding phosphorylated substrate protein bands. […] These reactions took place in the presence of 10 μM ATP.

CDK6/cyclin D1 = CDK6/cyclin D1 (Homo sapiens (Human), UniProt Q00534); test: Biochemical kinase inhibition test, CDK6/cyclin D1 (similar method); conditions: for pIC50: CDK6/cyclin D1, 10 μM ATP, read-out: CDK6/Cyelin D1 IC50; for selectivity for CDK6/cyclin D1 relative to CDK4/cyclin D1: enzyme inhibitory activity, CDK6/cyclin D1 vs CDK4/cyclin D1
Chain of CDK6/cyclin D1 (Q00534 whole entry, species assumed): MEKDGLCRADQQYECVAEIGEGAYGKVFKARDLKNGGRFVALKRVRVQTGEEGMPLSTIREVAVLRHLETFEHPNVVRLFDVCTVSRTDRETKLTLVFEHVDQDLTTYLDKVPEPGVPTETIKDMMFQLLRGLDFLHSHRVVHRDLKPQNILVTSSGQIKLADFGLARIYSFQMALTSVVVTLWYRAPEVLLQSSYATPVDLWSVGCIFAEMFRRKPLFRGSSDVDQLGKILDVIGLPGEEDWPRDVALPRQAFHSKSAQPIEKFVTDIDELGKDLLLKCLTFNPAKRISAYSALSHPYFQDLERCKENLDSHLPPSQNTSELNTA
Chain of CDK6/cyclin D1 (P24385 whole entry partner, species assumed): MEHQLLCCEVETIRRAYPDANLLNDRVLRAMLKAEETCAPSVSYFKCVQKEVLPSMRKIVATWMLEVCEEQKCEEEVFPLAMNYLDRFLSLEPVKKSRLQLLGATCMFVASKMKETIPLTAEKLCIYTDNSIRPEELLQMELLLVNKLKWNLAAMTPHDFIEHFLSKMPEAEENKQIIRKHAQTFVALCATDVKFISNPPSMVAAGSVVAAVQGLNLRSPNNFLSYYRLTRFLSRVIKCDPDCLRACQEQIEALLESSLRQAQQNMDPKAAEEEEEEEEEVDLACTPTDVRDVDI
Procedure: as §1

FLT3 = FLT3 (Homo sapiens (Human), UniProt P36888); test: Enzyme inhibition FLT3; type: biochemical; conditions: read-out: IC50 value of inhibition against FLT3
Chain of FLT3 (P36888 27-993, species assumed): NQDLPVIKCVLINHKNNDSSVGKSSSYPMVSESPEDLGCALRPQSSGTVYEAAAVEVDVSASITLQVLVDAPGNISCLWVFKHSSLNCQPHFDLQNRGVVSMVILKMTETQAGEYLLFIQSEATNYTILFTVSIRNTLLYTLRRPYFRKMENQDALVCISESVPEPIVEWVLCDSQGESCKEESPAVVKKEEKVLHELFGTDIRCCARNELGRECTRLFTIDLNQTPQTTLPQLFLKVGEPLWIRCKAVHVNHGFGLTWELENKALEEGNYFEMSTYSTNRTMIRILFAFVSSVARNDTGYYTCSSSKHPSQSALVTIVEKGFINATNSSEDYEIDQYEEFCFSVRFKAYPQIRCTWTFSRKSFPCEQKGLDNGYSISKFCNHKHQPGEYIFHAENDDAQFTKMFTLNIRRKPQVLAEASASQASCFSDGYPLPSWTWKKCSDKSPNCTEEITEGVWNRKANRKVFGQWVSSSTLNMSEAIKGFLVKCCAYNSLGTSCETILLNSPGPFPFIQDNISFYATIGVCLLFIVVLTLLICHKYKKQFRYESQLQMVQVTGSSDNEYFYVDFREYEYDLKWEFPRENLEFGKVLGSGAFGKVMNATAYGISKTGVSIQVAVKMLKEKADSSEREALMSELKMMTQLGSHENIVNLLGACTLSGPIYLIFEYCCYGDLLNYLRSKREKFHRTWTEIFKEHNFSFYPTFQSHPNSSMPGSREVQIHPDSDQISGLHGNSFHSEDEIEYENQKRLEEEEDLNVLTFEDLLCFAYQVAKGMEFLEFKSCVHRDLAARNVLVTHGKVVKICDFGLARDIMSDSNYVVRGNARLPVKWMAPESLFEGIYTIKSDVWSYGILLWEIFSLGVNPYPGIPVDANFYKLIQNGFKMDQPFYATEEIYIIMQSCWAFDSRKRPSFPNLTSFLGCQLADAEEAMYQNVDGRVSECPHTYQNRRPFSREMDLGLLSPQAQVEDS
Procedure: (§2) In addition, the inhibitory activities of the compounds of the present disclosure against enzyme ABL1, FLT3 and PIM1 were also tested.

PIM1 = PIM1 (Homo sapiens (Human), UniProt P11309); test: Enzyme inhibition PIM1; type: biochemical; conditions: read-out: IC50 value of inhibition against PIM1
Chain of PIM1 (P11309 whole entry, species assumed): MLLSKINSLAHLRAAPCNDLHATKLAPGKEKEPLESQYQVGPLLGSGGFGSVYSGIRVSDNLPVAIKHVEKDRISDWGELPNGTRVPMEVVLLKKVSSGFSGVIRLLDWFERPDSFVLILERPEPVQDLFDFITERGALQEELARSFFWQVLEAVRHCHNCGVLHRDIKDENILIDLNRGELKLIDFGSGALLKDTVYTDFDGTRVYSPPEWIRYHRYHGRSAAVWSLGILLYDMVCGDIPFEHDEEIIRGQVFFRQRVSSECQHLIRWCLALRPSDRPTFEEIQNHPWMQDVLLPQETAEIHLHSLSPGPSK
Procedure: as §2

Chain of CDK4/Cyclin D1 (P11802 whole entry): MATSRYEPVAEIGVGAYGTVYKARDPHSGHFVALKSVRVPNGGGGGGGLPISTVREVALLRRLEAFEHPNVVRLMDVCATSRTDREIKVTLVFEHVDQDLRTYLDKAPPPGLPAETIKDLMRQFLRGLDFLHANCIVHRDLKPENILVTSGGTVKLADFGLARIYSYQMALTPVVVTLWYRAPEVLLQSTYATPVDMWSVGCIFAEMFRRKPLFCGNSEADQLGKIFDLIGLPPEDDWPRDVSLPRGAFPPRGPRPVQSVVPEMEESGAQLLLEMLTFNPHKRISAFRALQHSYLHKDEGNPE
Chain of CDK4/Cyclin D1 (P24385 whole entry partner): as the sequence (P24385 whole entry partner, species assumed) above

Compound | pIC50 (CDK4/Cyclin D1) | pIC50 (CDK6/cyclin D1) | selectivity for CDK6/cyclin D1 relative to CDK4/cyclin D1 (CDK6/cyclin D1) | pIC50 (FLT3) | pIC50 (PIM1)
CC(C)c1cnc2ccc3cnc(Nc4ccc(N5CCNCC5)cn4)nc3n12.Cl [Compound I-1, 9-Isopropyl-N-(5-(piperazin-1-yl)pyridin-2-yl)imidazo[1′,2′:1,6]pyrido[2,3-d]pyrimidin-2-amine hydrochloride] | 8.30 to 9.00 | > 9.00 | more than 5 times | > 8.30 | > 7.30
CC(C)c1cnc2ccc3cnc(Nc4ccc(N5CCN(C)CC5)cn4)nc3n12 [Compound I-2, 9-Isopropyl-N-(5-(4-methylpiperazin-1-yl)pyridin-2-yl)imidazo[1′,2′:1,6]pyrido[2,3-d]pyrimidin-2-amine] | > 9.00 | > 9.00 |  |  | 
Cc1cc(Nc2ncc3ccc4ncc(C(C)C)n4c3n2)ncc1N1CCN(C)CC1 [Compound I-3] | 8.00 to 8.30 | 8.00 to 8.30 |  |  | 
Cc1nc(Nc2ncc3ccc4ncc(C(C)C)n4c3n2)ccc1N1CCN(C)CC1 [Compound I-4] | 8.00 to 8.30 | 8.00 to 8.30 |  |  | 
CCN1CCN(c2ccc(Nc3ncc4ccc5ncc(C(C)C)n5c4n3)nc2)CC1 [Compound I-5] | > 9.00 | > 9.00 |  |  | 
CCN1CCN(c2cnc(Nc3ncc4ccc5ncc(C(C)C)n5c4n3)cc2C)CC1 [Compound I-6] | 7.70 to 8.00 | 8.00 to 8.30 | 2-3 times |  | 
CCN1CCN(c2ccc(Nc3ncc4ccc5ncc(C(C)C)n5c4n3)nc2C)CC1 [Compound I-7] | 8.00 to 8.30 | 8.00 to 8.30 | 2-3 times |  | 
Cc1cc(Nc2ncc3ccc4ncc(C(C)C)n4c3n2)ncc1N1CCNCC1.Cl [Compound I-8] | 8.30 to 9.00 | > 9.00 | more than 5 times | > 8.30 | > 7.30
Cc1nc(Nc2ncc3ccc4ncc(C(C)C)n4c3n2)ccc1N1CCNCC1.Cl [Compound I-9] | 8.00 to 8.30 | > 9.00 | more than 10 times | > 8.30 | > 7.30
CC(C)c1cnc2ccc3cnc(Nc4ccc(N5CCN[C@@H](C)C5)cn4)nc3n12 [Compound I-10] | 8.00 to 8.30 | 8.00 to 8.30 |  |  | 
CC(C)c1cnc2ccc3cnc(Nc4ccc(N5CCNC(C)(C)C5)cn4)nc3n12 [Compound I-11] | 8.00 to 8.30 | 8.00 to 8.30 |  |  | 
CC(C)c1cnc2ccc3cnc(Nc4ccc(N5C[C@@H](C)N[C@@H](C)C5)cn4)nc3n12 [Compound I-12] | 8.00 to 8.30 | 8.00 to 8.30 |  |  | 
CC(C)c1cnc2ccc3cnc(Nc4cc(F)c(N5CCNCC5)cn4)nc3n12.Cl [Compound I-13] | 7.70 to 8.00 | 8.00 to 8.30 | 2-3 times |  | 
CC(C)c1cnc2ccc3cnc(Nc4ccc(N5CCNCC5)c(F)n4)nc3n12.Cl [Compound I-14] | 7.30 to 7.70 | 7.70 to 8.00 | 2-3 times |  | 
CC(C)c1cnc2ccc3cnc(Nc4ccc(N5CCCNCC5)cn4)nc3n12 [Compound I-15] | 7.30 to 7.70 | 7.30 to 7.70 |  |  | 
CC(C)c1cnc2ccc3cnc(Nc4ccc(N5CCCCC5)cn4)nc3n12 [Compound I-16] | 7.30 to 7.70 | 7.30 to 7.70 |  |  | 
CC(C)c1cnc2ccc3cnc(Nc4ccc(N5CCOCC5)cn4)nc3n12 [Compound I-17] | 8.00 to 8.30 | > 9.00 | more than 10 times | > 8.30 | > 7.30
Cc1cc(Nc2ncc3ccc4ncc(C(C)C)n4c3n2)ncc1N1CCOCC1 [Compound I-18] | 7.70 to 8.00 | 8.30 to 9.00 | about 4 times | > 8.30 | > 7.30
Cc1nc(Nc2ncc3ccc4ncc(C(C)C)n4c3n2)ccc1N1CCOCC1 [Compound I-19] | 8.00 to 8.30 | 8.00 to 8.30 |  |  | 
CC1CN(c2ccc(Nc3ncc4ccc5ncc(C(C)C)n5c4n3)nc2)CCO1 (stereo not drawn) [Compound I-20] | 8.00 to 8.30 | 8.00 to 8.30 |  |  | 

Compound | pIC50 (CDK4/Cyclin D1) | pIC50 (CDK6/cyclin D1) | selectivity for CDK6/cyclin D1 relative to CDK4/cyclin D1 (CDK6/cyclin D1) | pIC50 (FLT3) | pIC50 (PIM1)
CC(C)c1cnc2ccc3cnc(Nc4ccc(N5C[C@@H](C)O[C@@H](C)C5)cn4)nc3n12 [Compound I-21] | 7.30 to 7.70 | 7.70 to 8.00 | 2-3 times |  | 
CC(C)c1cnc2ccc3cnc(Nc4ccc(N5CCC6(CCNCC6)C5)cn4)nc3n12 [Compound I-22] | 7.30 to 7.70 | 7.30 to 7.70 |  |  | 
CC(C)c1cnc2ccc3cnc(Nc4ccc(N5CCC6(CNC6)C5)cn4)nc3n12 [Compound I-23] | 7.30 to 7.70 | 7.30 to 7.70 |  |  | 
CC(C)c1cnc2ccc3cnc(Nc4ccc(N5CC6(CNC6)C5)cn4)nc3n12 [Compound I-24] | 7.30 to 7.70 | 7.30 to 7.70 |  |  | 
CC(C)c1cnc2ccc3cnc(Nc4ccc(N5CCC6(CC5)CNC6)cn4)nc3n12 [Compound I-25] | 7.30 to 7.70 | 7.30 to 7.70 |  |  | 
CC(C)c1cnc2ccc3cnc(Nc4ccc(N5CC6(CCNCC6)C5)cn4)nc3n12 [Compound I-26] | 7.30 to 7.70 | 7.30 to 7.70 |  |  | 
CC(C)c1cnc2ccc3cnc(Nc4ccc(N5CCNCC5)cc4F)nc3n12 [Compound I-27] | 7.00 to 7.30 | 7.00 to 7.30 |  |  | 
COc1cc(OCCN(C)C)ccc1Nc1ncc2ccc3ncc(C(C)C)n3c2n1 [Compound I-28] | 7.00 to 7.30 | 7.00 to 7.30 |  |  | 
COc1cc(OC2CCN(C)CC2)ccc1Nc1ncc2ccc3ncc(C(C)C)n3c2n1 [Compound I-29] | 7.00 to 7.30 | 7.00 to 7.30 |  |  | 
COc1ccc2cc(Nc3ncc4ccc5ncc(C(C)C)n5c4n3)ccc2n1 [Compound I-30] | 7.00 to 7.30 | 7.00 to 7.30 |  |  | 
Cl.c1cc(Nc2ncc3ccc4ncc(C5CCCC5)n4c3n2)ncc1N1CCNCC1 [Compound I-31] | 8.30 to 9.00 | > 9.00 | more than 5 times | > 8.30 | > 7.30
CCN1CCN(c2cnc(Nc3ncc4ccc5ncc(C6CCCC6)n5c4n3)cc2C)CC1 [Compound I-32] | 8.00 to 8.30 | 8.00 to 8.30 |  |  | 
Cc1cc(Nc2ncc3ccc4ncc(C5CCCC5)n4c3n2)ncc1N1CCNCC1.Cl [Compound I-33] | 8.00 to 8.30 | > 9.00 | more than 10 times | > 8.30 | > 7.30
Cc1nc(Nc2ncc3ccc4ncc(C5CCCC5)n4c3n2)ccc1N1CCNCC1.Cl [Compound I-34] | 8.00 to 8.30 | > 9.00 | more than 10 times | > 8.30 | > 7.30
C[C@@H]1CN(c2ccc(Nc3ncc4ccc5ncc(C6CCCC6)n5c4n3)nc2)C[C@H](C)N1 [Compound I-35] | 8.00 to 8.30 | 8.00 to 8.30 |  |  | 
Fc1cc(Nc2ncc3ccc4ncc(C5CCCC5)n4c3n2)ncc1N1CCNCC1 [Compound I-36] | 7.70 to 8.00 | 7.70 to 8.00 |  |  | 
Fc1nc(Nc2ncc3ccc4ncc(C5CCCC5)n4c3n2)ccc1N1CCNCC1 [Compound I-37] | 8.00 to 8.30 | 8.00 to 8.30 |  |  | 
Cc1cc(Nc2ncc3ccc4ncc(C5CCCC5)n4c3n2)ncc1N1CCOCC1 [Compound I-38] | 7.70 to 8.00 | 8.30 to 9.00 | about 4 times | > 8.30 | > 7.30
C[C@@H]1CN(c2ccc(Nc3ncc4ccc5ncc(C6CCCC6)n5c4n3)nc2)C[C@H](C)O1 [Compound I-39] | 7.30 to 7.70 | 7.70 to 8.00 | 2-3 times |  | 
